# Experimental data taken from patent publication US11529335B2, “Compositions and methods for treating cancer” (UNIVERSITY OF IOWA RESEARCH FOUNDATION, priority 2020, dated 2022).
# Legend:
# [1] = tested on: GSH in A375 xenograft tumor samples; assay: GSH concentrations in tumor samples from treated mice; assay type: in vivo, mice (Athymic nu/nu); details: mice treated with BSO, 15 mM in drinking water
# Procedure: (§1) 2-Mercaptoethanol is a reducing agent that leads to reduction of disulphide bonds to produce thiols. […] The effect of eliminating GSH in vivo was tested by treating mice (Athymic nu/nu) bearing A375 xenografts with rodent diet (AIN-76A) containing PLX4720 ([…], 416 mg/kg of diet) alone and in combination with BSO (15 mM in drinking water). […] Tumor xenografts in mice treated with the AIN-76 diet mixed with PLX4720 were responsive initially, but approximately 80% of these tumors acquired resistance to BRAFi treatment alone within 140 days (i.e., 20% complete responses; FIG. 2). On the contrary, the combination of BSO with PLX4720 produced nearly 90% complete and durable tumor responses (FIG. 4). […] Tumor progression was defined as a 50% increase (approximately a two standard deviation increase) in tumor volume from study initiation.
# Female athymic nu/nu mice (age six weeks) were purchased from Envigo (previously Harlan Laboratories) and housed in the Animal Care Facility at The University of Iowa (Iowa City, Iowa). All procedures were approved by The University of Iowa Institutional Animal Care and Use Committee. All mice were naïve to treatments at the time of xenograft. For each xenograft, 1-3×10^6 cells (451LuBR and A375) were implanted subcutaneously in a 1:1 suspension of Matrigel (Corning) and PBS (flank) using a 27-gauge needle. […]
# A375 xenografts = A375 xenografts in athymic nu/nu mice: tumor growth, response, survival, body weight; assay type: in vivo
# Procedure: as §1
# Female athymic nu/nu mice (age six weeks) were purchased from Envigo (previously Harlan Laboratories) and housed in the Animal Care Facility at The University of Iowa (Iowa City, Iowa). All procedures were approved by The University of Iowa Institutional Animal Care and Use Committee. All mice were naïve to treatments at the time of xenograft. For each xenograft, 1-3×10^6 cells (451LuBR and A375) were implanted subcutaneously in a 1:1 suspension of Matrigel (Corning) and PBS (flank) using a 27-gauge needle. For all in vivo studies, the mice were randomly assigned to experimental groups post-implant. Animals developed tumors within 7-10 days post-implant. Initiation of treatments was standardized to the time that tumor volume ([(longest length)×(smallest length^2)]/2) reached 80-100 mm^3.
# The dose and mode of delivery for PBA was determined by analyzing the pharmacokinetics C-14 labeled PBA in mice (FIG. 5). These drugs were administered alone and in combination depending on the experimental group. The mice were monitored for their state of health every day. Tumor volume and animal weights were measured twice per week. Mice were euthanized when the observed state of health reached the endpoint according to the approved IACUC protocol or when the tumor volume reached 1500 mm^3.
# Statistics was conducted using the tumor sizes (mm^3) that were obtained periodically throughout the experiments, resulting in repeated measurements for each mouse. Linear mixed effects regression models were used to estimate and compare treatment group-specific tumor growth curves. Pairwise comparisons were performed to identify treatment group differences in the growth curves. The Kaplan-Meier method was used to estimate the survival curves, and group comparisons were made using the log rank test. Mice who developed ulcerations were censored at day of euthanasia. […]
Structure (SMILES),GSH concentrations in tumor samples vs controls [1],"tumor growth rate versus untreated controls (A375 xenografts; BSO alone, 15 mM in drinking water, A375 xenografts)","complete (and durable) tumor responses (A375 xenografts; A375 xenografts, PLX4720 416 mg/kg of diet, alone or with BSO 15 mM in drinking water) [%]",time within which tumor xenografts acquire resistance (A375 xenografts; BRAFi treatment alone) [days],"tumors that acquired resistance to BRAFi treatment alone (A375 xenografts; within 140 days, PLX4720 416 mg/kg of AIN-76A diet)"
"CCCCS(=N)(=O)CCC(N)C(=O)O (centres unmarked) [BSO, buthionine sulfoximine]",significantly lower,No significant difference,,,
CCCS(=O)(=O)Nc1ccc(F)c(C(=O)c2c[nH]c3ncc(Cl)cc23)c1F [PLX4720],,,20,≤ 140,approximately 80%
